Article PMC12655172, “Borylated 5-Membered Ring Iminosugars: Synthesis and Biological Evaluation for Glycosidase Inhibition and Anticancer Properties for Application in Boron Neutron Capture Therapy (BNCT)—Part 2” (Pharmaceuticals, 2025)

How the values were obtained:
[1] = tested on: T1, α-D-galactosidase (coffee beans); assay: Glycosidase inhibition (Table 2 panel); assay type: biochemical
T1 construct: purchased Sigma-Aldrich; host or cells: coffee beans
Text: (§1) The enzymes α-D-glucosidase (yeast), β-D-glucosidases (almond, bovine liver), α-D-galactosidase (coffee beans), β-D-galactosidase (bovine liver), α-D-mannosidase (Jack bean), β-D-mannosidase (snail), α-L-rhamnosidase (P. decumbens), α-L-fucosidase (bovine kidney), trehalase (porcine kidney), β-D-glucuronidases (E. coli, bovine liver), amyloglucosidase (A. niger), para-nitrophenyl glycosides, and various disaccharides were purchased from Sigma-Aldrich Co (St. Louis, MO, USA).
(§2) Brush border membranes were prepared from the rat small intestine according to the method of Kessler et al., and were assayed at pH 6.8 for rat intestinal maltase using maltose. For rat intestinal maltase, porcine kidney trehalase, and A. niger amyloglucosidase activities, the reaction mixture contained maltose (25 μM) and the appropriate amount of enzyme, and the incubations were performed for 10–30 min at 37 °C. The reaction was stopped by heating at 100 °C for 3 min. After centrifugation (600 g; 10 min), the resulting reaction mixture was added to the Glucose CII-test Wako (Wako Pure Chemical Ind., Osaka, Japan). The absorbance at 505 nm was measured to determine the amount of the released D-glucose. Other glycosidase activities were determined using an appropriate para-nitrophenyl glycoside as substrate at the optimum pH of each enzyme. The reaction mixture contained the substrate ([…]) and the appropriate amount of enzyme. The reaction was stopped by the addition of Na2CO3 ([…]). The released para-nitrophenol was measured spectrometrically at 400 nm. All reactions were run in […].

α-D-glucosidase (rice) = α-D-glucosidase (rice) (Oryza sativa subsp. japonica, UniProt Q653V7); assay: Glycosidase inhibition (Table 2 panel); assay type: biochemical
Text: as §1, §2

[2] = tested on: T2, α-D-mannosidase (Jack bean); assay: Glycosidase inhibition (Table 2 panel); assay type: biochemical
T2 construct: purchased Sigma-Aldrich; host or cells: Jack bean
Text: as §1, §2

β-D-glucosidase (almond) = assay: Glycosidase inhibition (Table 2 panel); assay type: biochemical
Text: as §1, §2

β-D-mannosidase (snail) = assay: Glycosidase inhibition (Table 2 panel); assay type: biochemical
Text: as §1, §2

[3] = tested on: T3, amyloglucosidase (A. niger); assay: Glycosidase inhibition (Table 2 panel); assay type: biochemical
T3 construct: purchased Sigma-Aldrich
Text: as §1
as §2, with “For rat intestinal maltase, porcine kidney trehalase, and A. niger amyloglucosidase activities, the reaction mixture contained maltose (25 μM) and the appropriate amount of enzyme, and the incubations were performed for 10–30 min at 37 °C.” left out, “The absorbance at 505 nm was measured to determine the amount of the released D-glucose.” left out

α-D-glucosidase (yeast) = target: T4, α-D-glucosidase (yeast) (Saccharomyces cerevisiae, UniProt P53341); assay: Glycosidase inhibition (Table 2 panel); assay type: biochemical; settings: read-out: inhibition % α-D-Glucosidase Yeast
T4 construct: purchased Sigma-Aldrich
Text: as §1
as §2, with “For rat intestinal maltase, porcine kidney trehalase, and A. niger amyloglucosidase activities, the reaction mixture contained maltose (25 μM) and the appropriate amount of enzyme, and the incubations were performed for 10–30 min at 37 °C.” left out, “The absorbance at 505 nm was measured to determine the amount of the released D-glucose.” left out

[4] = tested on: T5, β-D-glucuronidase (E. coli); assay: Glycosidase inhibition (Table 2 panel); assay type: biochemical
T5 construct: purchased Sigma-Aldrich
Text: as §1
as §2, with “For rat intestinal maltase, porcine kidney trehalase, and A. niger amyloglucosidase activities, the reaction mixture contained maltose (25 μM) and the appropriate amount of enzyme, and the incubations were performed for 10–30 min at 37 °C.” left out, “The absorbance at 505 nm was measured to determine the amount of the released D-glucose.” left out

[5] = tested on: A2780 (ovarian carcinoma); assay: Cancer screening, MTT growth inhibition; assay type: cell-based; settings: Homo sapiens; for inhibition at 25 µM: A2780, 25 µM of drug, 72 h, read-out: DOSE SCREEN percentage (%) cell growth inhibition A2780 Ovarian; for GI50: A2780, 72 h, read-out: DOSE RESPONSE GI50 A2780 Ovarian
Procedure: (§3) For Table 4, all test agents were prepared as stock solutions ([…]) in dimethyl sulfoxide (DMSO) and stored at −20 °C. Cell lines used in the study included HT29 (colorectal carcinoma), A2780 (ovarian carcinoma), H460 (lung carcinoma), A431 (skin carcinoma), MiaPaCa-2 (pancreatic carcinoma), and SMA560 (spontaneous murine astrocytoma), together with MCF10A (non-tumour derived normal breast cell line). Cell line sources: the HT29, H460, and MiaPaCa-2, together with MCF10A were purchased from ATCC. The A2780 and A431 were purchased from the European Collection of Cell Culture (ECACC). All cell lines were incubated in a humidified atmosphere 5% CO2 at 37 °C. The cancer cell lines were maintained in Dulbecco’s modified Eagle’s medium (DMEM; Sigma, Truganina, Australia) supplemented with foetal bovine serum (10%), sodium pyruvate ([…]), penicillin (100 IUmL^−1), streptomycin (100 µg mL^−1), and L-glutamine ([…]).
(§4) Growth inhibition was determined by plating cells in duplicate in medium (100 µL) at a density of 2500–4000 cells per well in 96-well plates. On day 0 (24 h after plating), when the cells are in logarithmic growth, medium (100 µL) with or without the test agent was added to each well. […] Each data point is the mean ± the standard error of the mean (SEM) calculated from three replicates which were performed on separate occasions and separate cell line passages.

A431 (skin carcinoma) = assay: Cancer screening, MTT growth inhibition; assay type: cell-based; settings: Homo sapiens; for inhibition at 25 µM: A-431, 25 µM of drug, 72 h, read-out: DOSE SCREEN percentage (%) cell growth inhibition A431 Skin; for GI50: A-431, 72 h, read-out: DOSE RESPONSE GI50 A431 Skin
Procedure: as §3, §4

H460 (lung carcinoma) = assay: Cancer screening, MTT growth inhibition; assay type: cell-based; settings: Homo sapiens; for inhibition at 25 µM: NCI-H460, 25 µM of drug, 72 h, read-out: DOSE SCREEN percentage (%) cell growth inhibition H460 Lung; for GI50: NCI-H460, 72 h, read-out: DOSE RESPONSE GI50 H460 Lung
Procedure: as §3, §4

[6] = tested on: HT29 (colorectal carcinoma); assay: Cancer screening, MTT growth inhibition; assay type: cell-based; settings: Homo sapiens; for inhibition at 25 µM: HT-29, 25 µM of drug, 72 h, read-out: DOSE SCREEN percentage (%) cell growth inhibition HT29 Colon; for GI50: HT-29, 72 h, read-out: DOSE RESPONSE GI50 HT29 Colon
Procedure: as §3, §4

[7] = tested on: MIA-Pa-Ca2 (pancreatic carcinoma); assay: Cancer screening, MTT growth inhibition; assay type: cell-based; settings: Homo sapiens; for inhibition at 25 µM: MIA PaCa-2, 25 µM of drug, 72 h, read-out: DOSE SCREEN percentage (%) cell growth inhibition MIA-Pa-Ca2 Pancreatic; for GI50: MIA PaCa-2, 72 h, read-out: DOSE RESPONSE GI50 MIA-Pa-Ca2 Pancreatic
Procedure: as §3, §4

T4 sequence (P53341 whole entry): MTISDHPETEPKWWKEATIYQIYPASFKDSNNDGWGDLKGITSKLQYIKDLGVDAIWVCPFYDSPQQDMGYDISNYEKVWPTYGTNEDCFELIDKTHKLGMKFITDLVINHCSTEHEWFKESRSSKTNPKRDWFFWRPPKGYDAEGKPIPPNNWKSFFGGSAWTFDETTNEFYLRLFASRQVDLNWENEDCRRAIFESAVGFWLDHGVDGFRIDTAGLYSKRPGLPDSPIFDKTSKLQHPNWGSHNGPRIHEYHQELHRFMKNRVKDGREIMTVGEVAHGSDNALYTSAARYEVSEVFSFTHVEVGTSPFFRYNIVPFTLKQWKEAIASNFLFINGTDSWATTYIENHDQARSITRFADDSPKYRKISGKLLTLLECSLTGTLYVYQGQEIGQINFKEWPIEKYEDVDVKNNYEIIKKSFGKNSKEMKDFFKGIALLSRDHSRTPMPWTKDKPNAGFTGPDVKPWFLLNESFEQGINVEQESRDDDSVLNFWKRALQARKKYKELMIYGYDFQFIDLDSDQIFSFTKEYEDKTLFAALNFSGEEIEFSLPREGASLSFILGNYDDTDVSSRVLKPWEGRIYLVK
α-D-glucosidase (rice), sequence (Q653V7 34-885): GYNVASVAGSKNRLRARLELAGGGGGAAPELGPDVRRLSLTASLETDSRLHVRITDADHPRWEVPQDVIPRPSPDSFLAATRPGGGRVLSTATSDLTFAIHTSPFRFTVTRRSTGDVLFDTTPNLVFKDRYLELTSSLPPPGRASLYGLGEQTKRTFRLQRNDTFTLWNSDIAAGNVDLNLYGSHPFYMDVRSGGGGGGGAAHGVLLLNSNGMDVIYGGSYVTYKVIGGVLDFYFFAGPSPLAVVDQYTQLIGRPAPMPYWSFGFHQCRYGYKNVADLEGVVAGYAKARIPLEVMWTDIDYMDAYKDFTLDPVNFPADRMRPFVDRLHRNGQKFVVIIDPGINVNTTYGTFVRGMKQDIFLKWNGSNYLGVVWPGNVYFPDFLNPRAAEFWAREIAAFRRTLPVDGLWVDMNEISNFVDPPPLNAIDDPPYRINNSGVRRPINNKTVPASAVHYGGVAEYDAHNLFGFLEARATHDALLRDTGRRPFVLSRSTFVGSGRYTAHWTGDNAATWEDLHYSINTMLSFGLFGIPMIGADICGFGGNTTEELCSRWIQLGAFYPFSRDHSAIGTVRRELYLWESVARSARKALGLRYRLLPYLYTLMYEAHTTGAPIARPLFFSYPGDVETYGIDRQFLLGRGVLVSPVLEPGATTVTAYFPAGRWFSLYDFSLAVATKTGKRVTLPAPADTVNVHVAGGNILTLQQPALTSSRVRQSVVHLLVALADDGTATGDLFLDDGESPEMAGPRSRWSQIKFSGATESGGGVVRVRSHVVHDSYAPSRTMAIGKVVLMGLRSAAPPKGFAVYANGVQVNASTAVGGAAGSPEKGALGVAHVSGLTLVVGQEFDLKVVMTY

SMILES	inhibition % α-D-Galactosidase Coffee Beans ([1]; at 100 μM)	inhibition % α-D-Galactosidase Coffee Beans ([1]; at 1000 μM)	inhibition at 100 µM (α-D-glucosidase (rice)) [%]	inhibition at 1000 µM (α-D-glucosidase (rice)) [%]	inhibition % α-D-Mannosidase Jack Bean ([2]; at 100 μM)	inhibition % β-D-Glucosidase Almond (β-D-glucosidase (almond); at 100 μM)	inhibition % β-D-Mannosidase Snail (β-D-mannosidase (snail); at 100 μM)	inhibition % Amyloglucosidase A. niger ([3]; at 100 μM)	inhibition at 100 µM (α-D-glucosidase (yeast)) [%]	inhibition % β-D-Glucuronidase E. coli ([4]; at 100 μM)	inhibition at 25 µM [5] [%]	GI50 [5] [µM]	inhibition at 25 µM (A431 (skin carcinoma)) [%]	GI50 (A431 (skin carcinoma)) [µM]	inhibition at 25 µM (H460 (lung carcinoma)) [%]	GI50 (H460 (lung carcinoma)) [µM]	inhibition at 25 µM [6] [%]	GI50 [6] [µM]	inhibition at 25 µM [7] [%]	GI50 [7] [µM]	also measured
CC1(C)O[C@H]2O[C@H]3[C@@H]([C@H]2O1)N(Cc1ccccc1B1OC(C)(C)C(C)(C)O1)C[C@H]3O [ortho 2, N-(2-Methylphenylboronic acid pinacol ester)-3,6-dideoxy-3,6-imino-1,2-O-isopropylidene-α-D-gulofuranose]	^cNI ^d(0%)	^aNI ^b(2.9%)	0	0	^cNI ^d(9.4%)	^cNI ^d(35%)	^cNI ^d(0%)	^cNI ^d(0%)	1	^cNI ^d(4.1%)	7 ± 2	> 50	10 ± 5	> 50	11 ± 4	> 50	7	> 50	9 ± 7	> 50	inhibition % α-D-Mannosidase Jack Bean ([2]; at 1000 μM): ^aNI ^b(1.3%); inhibition % β-D-Glucosidase Almond (β-D-glucosidase (almond); at 1000 μM): ^aNI ^b(7.2%); inhibition % β-D-Mannosidase Snail (β-D-mannosidase (snail); at 1000 μM): ^aNI ^b(7.8%); inhibition % Amyloglucosidase A. niger ([3]; at 1000 μM): ^aNI ^b(3.2%); inhibition at 1000 µM (α-D-glucosidase (yeast)): 0%; inhibition % β-D-Glucuronidase E. coli ([4]; at 1000 μM): ^aNI ^b(5.2%)
CC1(C)O[C@H]2O[C@H]3[C@@H]([C@H]2O1)N(Cc1cccc(B2OC(C)(C)C(C)(C)O2)c1)C[C@H]3O [meta 2, N-(3-Methylphenylboronic acid pinacol ester)-3,6-dideoxy-3,6-imino-1,2-O-isopropylidene-α-D-gulofuranose]	^cNI ^d(0%)	^aNI ^b(0%)	0	2.9	^cNI ^d(7.5%)	^cNI ^d(6.8%)	^cNI ^d(8.4%)	^cNI ^d(1.4%)	8.8	^cNI ^d(13.7%)	25 ± 2	> 50	8 ± 6	> 50	5 ± 2	> 50	1 ± 10	> 50	19 ± 8	> 50	inhibition % α-D-Mannosidase Jack Bean ([2]; at 1000 μM): ^aNI ^b(0%); inhibition % β-D-Glucosidase Almond (β-D-glucosidase (almond); at 1000 μM): ^aNI ^b(12.6%); inhibition % β-D-Mannosidase Snail (β-D-mannosidase (snail); at 1000 μM): ^aNI ^b(3.7%); inhibition % Amyloglucosidase A. niger ([3]; at 1000 μM): ^aNI ^b(0%); inhibition at 1000 µM (α-D-glucosidase (yeast)): 0%; inhibition % β-D-Glucuronidase E. coli ([4]; at 1000 μM): ^aNI ^b(5.6%)
CC1(C)O[C@H]2O[C@H]3[C@@H]([C@H]2O1)N(Cc1cccc(B(O)O)c1)C[C@H]3O [meta 5, N-(3-Methylphenylboronic acid)-3,6-dideoxy-3,6-imino-1,2-O-isopropylidene-α-D-glucofuranose]	^cNI ^d(1.5%)		0		^cNI ^d(6.3%)	^cNI ^d(0%)	^cNI ^d(2.3%)	^cNI ^d(0%)	7.8	^cNI ^d(4.1%)	32 ± 7	> 50	8 ± 8	> 50	10 ± 2	> 50	< 0	> 50	16 ± 1	> 50	
OB(O)c1ccccc1CN1C[C@@H](O)[C@H]2OC(O)[C@H](O)[C@H]21 (stereo partly drawn) [ortho 3, N-(2-Methylphenylboronic acid)-3,6-dideoxy-3,6-imino-D-gulofuranose]	^cNI ^d(0%)	^aNI ^b(0%)	0	0	^cNI ^d(3.8%)	^cNI ^d(13.7%)	^cNI ^d(0%)	^cNI ^d(0%)	2.9	^cNI ^d(0%)	17 ± 2	> 50	3 ± 1	> 50	2 ± 1	> 50	< 0	> 50	5 ± 5	> 50	inhibition % α-D-Mannosidase Jack Bean ([2]; at 1000 μM): ^aNI ^b(0%); inhibition % β-D-Glucosidase Almond (β-D-glucosidase (almond); at 1000 μM): ^aNI ^b(38.8%); inhibition % β-D-Mannosidase Snail (β-D-mannosidase (snail); at 1000 μM): ^aNI ^b(0%); inhibition % Amyloglucosidase A. niger ([3]; at 1000 μM): ^aNI ^b(2.1%); inhibition at 1000 µM (α-D-glucosidase (yeast)): 1%; inhibition % β-D-Glucuronidase E. coli ([4]; at 1000 μM): ^aNI ^b(8.4%)
